This note sets out measurements from publication PMC7827406, “Structure–Activity Relationship (SAR) Study of Spautin-1 to Entail the Discovery of Novel NEK4 Inhibitors” (International Journal of Molecular Sciences, 2021).

Read-outs that look alike come from different tables or passages of the source.

What all share (assay): biochemical
What all share (parameters): Eurofins KinaseProfiler full panel at Km ATP, residual kinase activity (%) relative to DMSO

For one experiment, the target named is T1, CHK2(R145W)(h) (Homo sapiens, UniProt O96017, R145W).
T1 construct: gene CHEK2
T1 sequence (O96017 whole entry R145W): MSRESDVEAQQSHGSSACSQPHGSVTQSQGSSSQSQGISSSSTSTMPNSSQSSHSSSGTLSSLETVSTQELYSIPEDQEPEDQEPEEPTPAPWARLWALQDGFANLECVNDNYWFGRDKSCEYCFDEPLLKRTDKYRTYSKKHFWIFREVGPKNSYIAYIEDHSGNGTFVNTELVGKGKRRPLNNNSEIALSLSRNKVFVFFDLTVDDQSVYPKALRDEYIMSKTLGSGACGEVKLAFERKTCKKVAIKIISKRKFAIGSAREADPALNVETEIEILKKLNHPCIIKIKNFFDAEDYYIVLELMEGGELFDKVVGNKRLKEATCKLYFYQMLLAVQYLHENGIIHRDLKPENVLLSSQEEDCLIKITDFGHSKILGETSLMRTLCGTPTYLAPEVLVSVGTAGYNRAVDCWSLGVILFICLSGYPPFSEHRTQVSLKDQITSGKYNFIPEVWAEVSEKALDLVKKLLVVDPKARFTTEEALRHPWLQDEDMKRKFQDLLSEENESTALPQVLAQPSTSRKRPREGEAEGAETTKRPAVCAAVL
The gist of the method:
(§1)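 Compounds screened at 10 µM in radiometric kinase activity assays at Km ATP, reported as remaining kinase activity (%). A KINOMEscan competition-binding screen at 10 µM measured DNA-tagged kinase retained on immobilized active-site ligand by qPCR.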

A further experiment addresses CLK2(h) (Homo sapiens, UniProt P49760). An outline of the steps: as §1
Another experiment deals with T2, DRAK2(h) (Homo sapiens, UniProt O94768).
T2 construct: gene STK17B
T2 sequence (O94768 1-372): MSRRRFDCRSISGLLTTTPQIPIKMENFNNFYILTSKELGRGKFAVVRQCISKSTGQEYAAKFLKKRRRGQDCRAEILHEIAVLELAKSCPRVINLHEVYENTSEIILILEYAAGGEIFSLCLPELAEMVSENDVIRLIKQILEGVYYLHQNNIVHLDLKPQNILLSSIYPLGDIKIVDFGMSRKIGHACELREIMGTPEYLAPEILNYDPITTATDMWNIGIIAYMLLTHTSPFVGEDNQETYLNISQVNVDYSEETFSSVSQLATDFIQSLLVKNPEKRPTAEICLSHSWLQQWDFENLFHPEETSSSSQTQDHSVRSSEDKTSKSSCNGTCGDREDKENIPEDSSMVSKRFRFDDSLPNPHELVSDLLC
An outline of the steps: as §1

In the next experiment the target is T3, TAO3(h) (Homo sapiens, UniProt Q9H2K8).
T3 construct: gene TAOK3
T3 sequence (Q9H2K8 1-898): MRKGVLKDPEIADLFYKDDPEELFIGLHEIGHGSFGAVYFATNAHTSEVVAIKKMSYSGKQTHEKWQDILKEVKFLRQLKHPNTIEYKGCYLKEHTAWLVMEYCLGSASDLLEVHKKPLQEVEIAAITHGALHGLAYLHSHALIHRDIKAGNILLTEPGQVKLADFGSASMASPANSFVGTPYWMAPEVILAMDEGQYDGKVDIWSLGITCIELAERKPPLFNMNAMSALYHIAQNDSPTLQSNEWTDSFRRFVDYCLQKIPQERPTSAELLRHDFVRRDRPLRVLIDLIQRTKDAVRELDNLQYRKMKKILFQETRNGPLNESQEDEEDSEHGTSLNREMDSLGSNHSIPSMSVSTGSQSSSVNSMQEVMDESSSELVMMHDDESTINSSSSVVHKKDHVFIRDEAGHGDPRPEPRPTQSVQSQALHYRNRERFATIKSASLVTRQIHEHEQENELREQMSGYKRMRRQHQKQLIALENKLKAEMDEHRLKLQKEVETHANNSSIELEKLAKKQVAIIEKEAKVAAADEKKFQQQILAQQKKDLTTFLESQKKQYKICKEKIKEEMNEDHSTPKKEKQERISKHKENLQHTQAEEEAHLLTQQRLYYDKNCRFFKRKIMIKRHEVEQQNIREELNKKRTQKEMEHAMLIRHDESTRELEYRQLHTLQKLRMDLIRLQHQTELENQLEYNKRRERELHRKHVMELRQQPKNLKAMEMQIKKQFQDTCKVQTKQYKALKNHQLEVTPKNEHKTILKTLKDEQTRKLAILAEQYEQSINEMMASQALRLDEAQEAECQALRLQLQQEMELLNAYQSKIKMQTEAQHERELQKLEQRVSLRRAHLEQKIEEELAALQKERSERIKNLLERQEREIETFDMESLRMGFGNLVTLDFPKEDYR
The gist of the method:
as §1

For the next experiment, the target named is T4, TSSK4(h) (Homo sapiens, UniProt Q6SA08).
T4 sequence (Q6SA08 1-328): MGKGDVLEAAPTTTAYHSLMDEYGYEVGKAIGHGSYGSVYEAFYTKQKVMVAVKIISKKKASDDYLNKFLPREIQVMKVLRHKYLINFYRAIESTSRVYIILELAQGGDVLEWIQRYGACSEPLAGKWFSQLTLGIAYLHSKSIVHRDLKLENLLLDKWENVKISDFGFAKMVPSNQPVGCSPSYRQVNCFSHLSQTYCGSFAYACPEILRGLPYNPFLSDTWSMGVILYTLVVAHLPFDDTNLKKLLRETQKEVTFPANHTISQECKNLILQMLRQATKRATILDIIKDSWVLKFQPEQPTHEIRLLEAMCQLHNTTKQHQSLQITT
An outline of the steps: as §1

The mark [1] stands for this setting: read-out: Residual activity (%) Spautin-1 5aa.
Where [2] appears, read: read-out: Residual activity (%) 5as.
[3] abbreviates: read-out: Residual activity (%) 5at.
Where [4] appears, read: read-out: Residual activity (%) 5ay.

CLK2(h), sequence (P49760 whole entry): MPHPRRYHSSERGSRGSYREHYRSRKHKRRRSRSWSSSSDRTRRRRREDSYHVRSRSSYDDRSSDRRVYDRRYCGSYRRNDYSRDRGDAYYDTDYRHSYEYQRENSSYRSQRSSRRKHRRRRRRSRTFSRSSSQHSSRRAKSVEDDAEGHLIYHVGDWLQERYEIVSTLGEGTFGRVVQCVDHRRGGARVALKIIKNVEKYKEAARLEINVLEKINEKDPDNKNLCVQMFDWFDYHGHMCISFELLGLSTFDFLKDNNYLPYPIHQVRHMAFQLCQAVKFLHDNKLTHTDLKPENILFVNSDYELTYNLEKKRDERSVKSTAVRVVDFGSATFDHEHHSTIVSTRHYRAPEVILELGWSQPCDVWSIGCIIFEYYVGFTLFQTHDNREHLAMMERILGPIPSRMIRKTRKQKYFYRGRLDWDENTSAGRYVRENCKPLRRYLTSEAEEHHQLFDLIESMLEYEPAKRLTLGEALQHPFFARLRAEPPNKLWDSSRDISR

As to `Fc1ccc(CNc2ncnc3ccc(F)cc23)cc1` [5aa, 6-Fluoro-N-(4-fluorobenzyl)-4-Quinazolinamine], the remaining activity at 10 µM was 101% on CHK2(R145W)(h) (setting [1]); 47% on CLK2(h) (setting [1]); 88% on DRAK2(h) (setting [1]); 94% at TAO3(h) (setting [1]); 89% at TSSK4(h) (setting [1]).
As for `Fc1ccc(CCNc2ncnc3ccc(F)cc23)cc1` [5as, 6-Fluoro-N-[2-(4-Fluorophenyl)Ethyl]-4-Quinazolinamine], the remaining activity at 10 µM is 90% on CHK2(R145W)(h) (setting [2]); 53% at CLK2(h) (setting [2]); 73% on DRAK2(h) (setting [2]); 78% on TAO3(h) (setting [2]); 112% on TSSK4(h) (setting [2]).
Take `Fc1ccc2ncnc(NCCc3ccc(Cl)cc3)c2c1` [5at, N-[2-(4-Chlorophenyl)Ethyl]-6-Fluoro-4-Quinazolinamine]: the remaining activity at 10 µM was 91% at CHK2(R145W)(h) (setting [3]); 60% on CLK2(h) (setting [3]); 88% on DRAK2(h) (setting [3]); 82% at TAO3(h) (setting [3]); 125% at TSSK4(h) (setting [3]).
Consider `COc1ccc2ncnc(Nc3cccc(F)c3)c2c1` [5ay, N-(3-Fluorophenyl)-6-Methoxy-4-Quinazolinamine], for which the remaining activity at 10 µM on CHK2(R145W)(h) (setting [4]) came out at 87%; on CLK2(h) (setting [4]), 43%; on DRAK2(h) (setting [4]), 65%; at TAO3(h) (setting [4]) it was 77%; on TSSK4(h) (setting [4]) it was 134%.
